Test results from patent US7365231B2, “Compound with antitumor activity and preparation method therefor” (National Taiwan University of Science & Technology, priority 2005, dated 2008).

What was measured:
Experiment in all cases: NCI panel growth inhibition, sulforhodamine B
COLO 205 = format: cell-based; conditions: Homo sapiens; COLO 205, Colon cancer; drug for last 48 h of 72 h
From the text: (§1) Comparison of anticancer activities of the 1,3-substituted adamantane derivatives, 1,3-bis(4-aminophenyl)adamantane (1,3-DPANH2), 1,3-bis(4-(4-aminophenoxy)phenyl)adamantane (1,3-DPAONH2), 1,3-bis(4-(4-amino-3-hydroxy)phenyl)adamantane (1,3-DPA/OH/NH2) and 1,3-bis(4-(4-amino-2-trifluoromethylphenoxy)phenyl)adamantane (1,3-DPA/CF3/NH2) as shown in FIG. 1 were synthesized in the present invention. Those compounds were submitted to the National Cancer Institute for anticancer assay in culture against a standard panel of cell lines. […] To further confirm that the different substituents (CF3 and OH) on the phenyl ring of 1,3-DPAONH2 affect the growth inhibition of cancer cells. […] The transformations of 1,3-DPAONH2 to 1,3-DPA/OH/NH2 led to a remarked enhancement of anticancer activity toward all the tested cancer lines. The role of the OH group at the ortho position of the NH2 on growth inhibition is remarkable. In addition, one compound (1,3-DPA/OH/NH2) was confirmed to have an IC50 of <1 μM against one of the cells (BT-549 breast carcinoma). Comparison of anticancer activities of 1,3-substituted diaminophenyladamantane derivatives, the following order of potency against the tested cancer lines was observed: 1,3-DPA/OH/NH2>1,3-DPAONH2>1,3-DPANH2>1,3-DPA/CF3/NH2.

OVCAR-4 = format: cell-based; conditions: Homo sapiens; OVCAR-4, Ovarian cancer; drug for last 48 h of 72 h
From the text: as §1

PC-3 = format: cell-based; conditions: Homo sapiens; PC-3, Prostate cancer; drug for last 48 h of 72 h
From the text: as §1

OVCAR-8 = format: cell-based; conditions: Homo sapiens; OVCAR-8, Ovarian cancer; drug for last 48 h of 72 h
From the text: as §1

ACHN = format: cell-based; conditions: Homo sapiens, Renal cancer, drug for last 48 h of 72 h
From the text: as §1

NCI-H522 = format: cell-based; conditions: Homo sapiens; NCI-H522, NSCLC; drug for last 48 h of 72 h
From the text: as §1

NCI-H226 = format: cell-based; conditions: Homo sapiens; NCI-H226, NSCLC; drug for last 48 h of 72 h
From the text: as §1

M14 = format: cell-based; conditions: Homo sapiens; M14, Melanoma; drug for last 48 h of 72 h
From the text: as §1

KM12 = format: cell-based; conditions: Homo sapiens, KM12, KM12, Colon cancer; drug for last 48 h of 72 h
From the text: as §1

OVCAR-3 = format: cell-based; conditions: Homo sapiens; OVCAR-3, Ovarian cancer; drug for last 48 h of 72 h
From the text: as §1

MDA-MB-435 = format: cell-based; conditions: Homo sapiens; MDA-MB-435, Breast cancer; drug for last 48 h of 72 h
From the text: as §1

A498 = format: cell-based; conditions: Homo sapiens; A498, Renal cancer; drug for last 48 h of 72 h
From the text: as §1

UO-31 = format: cell-based; conditions: Homo sapiens; UO-31, Renal cancer; drug for last 48 h of 72 h
From the text: as §1

HCT-116 = format: cell-based; conditions: Homo sapiens; HCT-116, Colon cancer; drug for last 48 h of 72 h
From the text: as §1

HL-60(TB) = format: cell-based; conditions: Homo sapiens, Leukemia, drug for last 48 h of 72 h
From the text: as §1

K-562 = format: cell-based; conditions: Homo sapiens, K562; K-562, Leukemia; drug for last 48 h of 72 h
From the text: as §1

MCF-7 = format: cell-based; conditions: Homo sapiens, MCF7; MCF-7, Breast cancer; drug for last 48 h of 72 h
From the text: as §1

CAKI-1 = format: cell-based; conditions: Homo sapiens; CAKI-1, Renal cancer; drug for last 48 h of 72 h
From the text: as §1

SK-MEL-2 = format: cell-based; conditions: Homo sapiens; SK-MEL-2, Melanoma; drug for last 48 h of 72 h
From the text: as §1

HCT-15 = format: cell-based; conditions: Homo sapiens; HCT-15, Colon cancer; drug for last 48 h of 72 h
From the text: as §1

SNB-19 = format: cell-based; conditions: Homo sapiens; SNB-19, CNS cancer; drug for last 48 h of 72 h
From the text: as §1

LOX IMVI = format: cell-based; conditions: Homo sapiens, Melanoma, drug for last 48 h of 72 h
From the text: as §1

SW-620 = format: cell-based; conditions: Homo sapiens; SW-620, Colon cancer; drug for last 48 h of 72 h
From the text: as §1

A549/ATCC = format: cell-based; conditions: Homo sapiens, NSCLC, drug for last 48 h of 72 h
From the text: as §1

DU-145 = format: cell-based; conditions: Homo sapiens; DU-145, Prostate cancer; drug for last 48 h of 72 h
From the text: as §1

SN12C = format: cell-based; conditions: Homo sapiens, Renal cancer, drug for last 48 h of 72 h
From the text: as §1

BT-549 = format: cell-based, human; conditions: Homo sapiens, BT-549, BT-549, Breast cancer; drug for last 48 h of 72 h
From the text: as §1

NCI/ADR-RES = format: cell-based, human; conditions: Homo sapiens, Breast cancer, drug for last 48 h of 72 h
From the text: as §1

SF-295 = format: cell-based, human; conditions: Homo sapiens, SF-295, SF-295, CNS cancer; drug for last 48 h of 72 h
From the text: as §1

Compound `Nc1ccc(Oc2ccc(C3(c4ccc(Oc5ccc(N)c(O)c5)cc4)C4CC5CC(C4)CC3C5)cc2)cc1O` [DPA, 2,2-bis(4-(4-amino-3-hydroxyphenoxy)phenyl)adamantane] has an IC50 (COLO 205) of 484 nM, an IC50 (OVCAR-4) of 3070 nM and an IC50 (PC-3) of 1600 nM. It also gave an IC50 (OVCAR-8) of 1680 nM, an IC50 (ACHN) of 1780 nM and an IC50 (NCI-H522) of 1600 nM. It also gave an IC50 (NCI-H226) of 1940 nM, an IC50 (M14) of 1690 nM and an IC50 (KM12) of 2020 nM. It also gave an IC50 (OVCAR-3) of 1560 nM, an IC50 (MDA-MB-435) of 2300 nM and an IC50 (A498) of 4670 nM. It also gave an IC50 (UO-31) of 1850 nM, an IC50 (HCT-116) of 1580 nM and an IC50 (HL-60(TB)) of 2050 nM. For the same compound, the IC50 (K-562) was 1980 nM, the IC50 (MCF-7) was 1930 nM and the IC50 (CAKI-1) was 2320 nM. It also gave an IC50 (SK-MEL-2) of 1690 nM, an IC50 (HCT-15) of 1670 nM and an IC50 (SNB-19) of 3010 nM. The IC50 (LOX IMVI) was 1690 nM, the IC50 (SW-620) was 1630 nM and the IC50 (A549/ATCC) was 1940 nM. The IC50 (DU-145) was 2060 nM, the IC50 (SN12C) was 1830 nM and the IC50 (BT-549) was 2050 nM. It also gave an IC50 (NCI/ADR-RES) of 2330 nM and an IC50 (SF-295) of 2570 nM.
